This is an account of results in the supplement of paper PMC11208160.
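Note: IS621 recombinase and bridge RNA in Escherichia coli cells.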

This data set in a line: recombinant barcode read abundance after kanamycin selection (control-corrected) (log10(CPM+1)); higher = more efficient recombination; sequences stand for … in AGTGCAGAGAAAATCGGCCAGTTTTCTCTGCCTGCAGTCCGCATGCCGT…AGATTTATGCAGCGGACTGCCTTTCTCCCAAAGTGATAAACCGGACAGTATCATGGACCGGTTTTCCCGGTAATCCGTATTTGCAAGGTTGGTTTCACT; site = the 11-nt target. Put shortly:
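Duplicate cultures were plated either on chloramphenicol/ampicillin LB agar, serving as control, or on chloramphenicol/ampicillin/kanamycin with 0.1 mM IPTG. These came from a pooled E. coli library co-electroporated with a donor plasmid, each member pairing a target with an IS621 bridge RNA target-binding loop. Recombination efficiency equals averaged, control-corrected counts per million of recombinant-junction barcodes. It is listed as log10(CPM+1).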
For “GGTGCGGCTTGGGTTCTAACCTGTTGCCT (site TGTGCGGCTAG)”, the “recombinant barcode read abundance (log10)” value was determined as 0.505. For “GGTGGATCTTGGGTTCTAACCTGTTGCCT (site GGTGACTCTAG)” the value was 0.0125; for “GGTGGATCTTGGGTTCTAACCTGTTGCCT (site GGTGGATCTAG)”, 0.813; for “GGTGGCTCTTGGGTTCTAACCTGTTGCCA (site GGTGGCTCTTG)”, 0.607. For “GGTGGCTCTTGGGTTCTAACCTGTTGCCA (site TAATCTCCTAC)” the value was 0.0407; for “GGTGGGTCTTGGGTTCTAACCTGTTGCAT (site GGTGGGTCTAA)”, 0.345. In the case of “GGTGGGTCTTGGGTTCTAACCTGTTGCAT (site GGTGGGTCTAC)” it was 0.128; in that of “GGTGGGTCTTGGGTTCTAACCTGTTGCAT (site GGTGGGTCTAG)”, 0.805. Take “GGTGGGTCTTGGGTTCTAACCTGTTGCAT (site GGTGGGTCTAT)”: the “recombinant barcode read abundance (log10)” value came out at 2.25. In the case of “GGTGGGTCTTGGGTTCTAACCTGTTGCCT (site GGTGGGTCTAA)” it was 0.123; in that of “GGTGGGTCTTGGGTTCTAACCTGTTGCCT (site GGTGGGTCTAC)”, 0.123. In the case of “GGTGGGTCTTGGGTTCTAACCTGTTGCCT (site GGTGGGTCTAG)” it was 1.29; in that of “GGTGGGTCTTGGGTTCTAACCTGTTGCCT (site GGTGGGTCTAT)”, 0.382; in that of “GGTTCCTCTTGGGTTCTAACCTGTTGCCT (site GGATCGTCTAG)”, 0.0714. Regarding “GGTTCCTCTTGGGTTCTAACCTGTTGCCT (site GGTTCCTCTAG)”, the “recombinant barcode read abundance (log10)” value is 1.11. For “GGTTCTCCTTGGGTTCTAACCTGTTGCCT (site AGTTCTCCTAG)” the value was 0.0625. Consider “GGTTCTCCTTGGGTTCTAACCTGTTGCCT (site CGTTCTCCTAG)”, for which the “recombinant barcode read abundance (log10)” value amounted to 0.0451. “GGTTCTCCTTGGGTTCTAACCTGTTGCCT (site GGTTCTCCTAG)”: the “recombinant barcode read abundance (log10)” value was 0.288. For “GGTTCTCCTTGGGTTCTAACCTGTTGCCT (site TGTTCTCCTAG)” the value was 0.0347; for “GGTTCTTCTTGGGTTCTAACCTGTTGCCT (site GATTCTTCTAG)”, 0.12; for “GGTTCTTCTTGGGTTCTAACCTGTTGCCT (site GCTTCTTCTAG)”, 0.0288. Consider “GGTTCTTCTTGGGTTCTAACCTGTTGCCT (site GGTTCTTCTAG)”, for which the “recombinant barcode read abundance (log10)” value was found to be 0.344. Turning to “GGTTCTTCTTGGGTTCTAACCTGTTGCCT (site GTTTCTTCTAG)”, the “recombinant barcode read abundance (log10)” value was 0.19.

“GGTTGACCTTGGGTTCTAACCTGTTGCGG (site GGTTGACCTCC)”: the “recombinant barcode read abundance (log10)” value is 1.51. In the case of “GGTTGACCTTGGGTTCTAACCTGTTGCGG (site GGTTGCCCTCC)” it was 0.0589; in that of “GGTTGACCTTGGGTTCTAACCTGTTGCGG (site GGTTGGCCTCC)”, 0.0632. In the case of “GGTTGACCTTGGGTTCTAACCTGTTGCGG (site GGTTGTCCTCC)” it was 0.0522; in that of “GGTTGCCCTTGGGTTCTAACCTGTTGCGG (site GGTTGACCTCC)”, 0.295. With “GGTTGCCCTTGGGTTCTAACCTGTTGCGG (site GGTTGCCCTCC)”, the “recombinant barcode read abundance (log10)” value came to 0.946. For “GGTTGCCCTTGGGTTCTAACCTGTTGCGG (site GGTTGGCCTCC)” the value was 0.0682; for “GGTTGCCCTTGGGTTCTAACCTGTTGCGG (site GGTTGTCCTCC)”, 0.0903. “GGTTGTCCTTGGGTTCTAACCTGTTGCCT (site GGTGGTCCTAG)”: the “recombinant barcode read abundance (log10)” value was 0.253.

In the case of “GGTTGTCCTTGGGTTCTAACCTGTTGCCT (site GGTTGTCCTAG)”, the “recombinant barcode read abundance (log10)” value was determined as 0.328. In the case of “GGTTGTCCTTGGGTTCTAACCTGTTGCGG (site GGTTGACCTCC)” it was 0.237; in that of “GGTTGTCCTTGGGTTCTAACCTGTTGCGG (site GGTTGCCCTCC)”, 0.0684. For “GGTTGTCCTTGGGTTCTAACCTGTTGCGG (site GGTTGGCCTCC)”, the “recombinant barcode read abundance (log10)” value was 0.109. In the case of “GGTTGTCCTTGGGTTCTAACCTGTTGCGG (site GGTTGTCCTCC)” it was 1.2; in that of “GGTTGTCCTTGGGTTCTAACCTGTTGCTA (site GATTGTCCTAA)”, 0.182; in that of “GGTTGTCCTTGGGTTCTAACCTGTTGCTA (site GGTTGTCCTTA)”, 0.181. Regarding “GGTTTAGCTTGGGTTCTAACCTGTTGCTA (site GGTTTAGCTTA)”, the “recombinant barcode read abundance (log10)” value amounted to 0.106.

For the sequence “GGTTTAGCTTGGGTTCTAACCTGTTGCTA (site TGTATAGCTTA)”, the “recombinant barcode read abundance (log10)” value amounted to 0.0842. Regarding “GTAAAACCTTGGGTTCTAACCTGTTGCCT (site ATAAAACCTAG)”, the “recombinant barcode read abundance (log10)” value stood at 0.281. In the case of “GTAAAACCTTGGGTTCTAACCTGTTGCCT (site CTAAAACCTAG)”, the “recombinant barcode read abundance (log10)” value stood at 0.23.

With “GTAAAACCTTGGGTTCTAACCTGTTGCCT (site GTAAAACCTAG)”, the “recombinant barcode read abundance (log10)” value was 1.06. On to “GTAAAACCTTGGGTTCTAACCTGTTGCCT (site TTAAAACCTAG)”, for which the “recombinant barcode read abundance (log10)” value stood at 0.266. For “GTAAACCCTTGGGTTCTAACCTGTTGCGG (site GTAAACCCTCC)”, the “recombinant barcode read abundance (log10)” value worked out at 2.33. For “GTAAACCCTTGGGTTCTAACCTGTTGCGG (site GTCAACCCTCC)” the value was 0.228; for “GTAACGACTTGGGTTCTAACCTGTTGCCA (site GTAACGACTTG)”, 1.08. On to “GTAACGACTTGGGTTCTAACCTGTTGCCA (site GTGAGGACTTG)”, for which the “recombinant barcode read abundance (log10)” value was 0.0765. In the case of “GTAAGTCCTTGGGTTCTAACCTGTTGCAG (site GTAAGAACTCT)” it was 0.0477.

Consider “GTAAGTCCTTGGGTTCTAACCTGTTGCAG (site GTAAGTCCTCT)”, for which the “recombinant barcode read abundance (log10)” value is 1.97.

Regarding “GTAAGTGCTTGGGTTCTAACCTGTTGCAT (site ACCCAGTCTCC)”, the “recombinant barcode read abundance (log10)” value was 0.174. On to “GTAAGTGCTTGGGTTCTAACCTGTTGCAT (site GTAAGTGCTAT)”, for which the “recombinant barcode read abundance (log10)” value was determined as 0.829. As for “GTAATCCCTTGGGTTCTAACCTGTTGCCA (site GTAATCCCTCG)”, the “recombinant barcode read abundance (log10)” value was determined as 0.173. Consider “GTAATCCCTTGGGTTCTAACCTGTTGCCA (site GTAATCCCTTG)”, for which the “recombinant barcode read abundance (log10)” value was determined as 1.32.

With “GTACAGACTTGGGTTCTAACCTGTTGCCT (site GTACAGACTAG)”, the “recombinant barcode read abundance (log10)” value is 1.43. In the case of “GTACAGACTTGGGTTCTAACCTGTTGCCT (site GTCCAGACTAG)” it was 0.0588; in that of “GTACAGACTTGGGTTCTAACCTGTTGCCT (site GTGCAGACTAG)”, 0.0183; in that of “GTACAGACTTGGGTTCTAACCTGTTGCCT (site GTTCAGACTAG)”, 0.078. For “GTACAGGCTTGGGTTCTAACCTGTTGCAG (site GTACAGGCTCT)” the value was 0.808; for “GTACAGGCTTGGGTTCTAACCTGTTGCAG (site TGACAGGCTCT)”, 0.178. For “GTACGCACTTGGGTTCTAACCTGTTGCCT (site AGTTAGTCTCT)” the value was 0.0249; for “GTACGCACTTGGGTTCTAACCTGTTGCCT (site GTACGCACTAG)”, 0.994; for “GTAGTAGCTTGGGTTCTAACCTGTTGCCT (site GTAGTAACTAG)”, 0.954. As for “GTAGTAGCTTGGGTTCTAACCTGTTGCCT (site GTAGTACCTAG)”, the “recombinant barcode read abundance (log10)” value was 0.0193.

With “GTAGTAGCTTGGGTTCTAACCTGTTGCCT (site GTAGTAGCTAG)”, the “recombinant barcode read abundance (log10)” value was 2.06. For “GTAGTAGCTTGGGTTCTAACCTGTTGCCT (site GTAGTATCTAG)”, the “recombinant barcode read abundance (log10)” value was found to be 0.492. For the sequence “GTAGTATCTTGGGTTCTAACCTGTTGCCT (site GTAGTAACTAG)”, the “recombinant barcode read abundance (log10)” value was 0.0297. For the sequence “GTAGTATCTTGGGTTCTAACCTGTTGCCT (site GTAGTACCTAG)”, the “recombinant barcode read abundance (log10)” value turned out to be 0.115. In the case of “GTAGTATCTTGGGTTCTAACCTGTTGCCT (site GTAGTAGCTAG)” it was 0.104; in that of “GTAGTATCTTGGGTTCTAACCTGTTGCCT (site GTAGTATCTAG)”, 1.96. Turning to “GTATATACTTGGGTTCTAACCTGTTGCTT (site ACGGGGCCTCG)”, the “recombinant barcode read abundance (log10)” value stood at 0.0368. On to “GTATATACTTGGGTTCTAACCTGTTGCTT (site GTATATACTAA)”, for which the “recombinant barcode read abundance (log10)” value was 0.578.

On to “GTATCATCTTGGGTTCTAACCTGTTGCCT (site GTATCAACTAG)”, for which the “recombinant barcode read abundance (log10)” value stood at 0.126. In the case of “GTATCATCTTGGGTTCTAACCTGTTGCCT (site GTATCACCTAG)” it was 0.942.

As for “GTATCATCTTGGGTTCTAACCTGTTGCCT (site GTATCAGCTAG)”, the “recombinant barcode read abundance (log10)” value stood at 0.0191. In the case of “GTATCATCTTGGGTTCTAACCTGTTGCCT (site GTATCATCTAG)” it was 0.52.
